The text below walks through data of paper PMC3850452, “Glycolic acid production in the engineered yeasts Saccharomyces cerevisiae and Kluyveromyces lactis” (Microbial Cell Factories, 2013).

One series deals with T1, GLYR1 (Arabidopsis thaliana, UniProt Q9LSV0).
T1 construct: full-length gene codon optimised for yeast, TPI1 promoter multicopy plasmid (p2159/pYX212), expressed in S. cerevisiae; crude cell extract, no tag told
T1 sequence (Q9LSV0 1-289): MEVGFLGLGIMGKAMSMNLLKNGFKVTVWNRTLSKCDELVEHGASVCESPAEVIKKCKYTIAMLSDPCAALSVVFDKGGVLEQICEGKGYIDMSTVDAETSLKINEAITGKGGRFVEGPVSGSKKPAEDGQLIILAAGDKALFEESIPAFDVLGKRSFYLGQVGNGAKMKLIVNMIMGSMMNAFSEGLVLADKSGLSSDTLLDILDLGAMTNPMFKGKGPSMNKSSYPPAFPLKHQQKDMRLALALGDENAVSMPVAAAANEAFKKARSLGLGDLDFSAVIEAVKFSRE
As to the kind of experiment: NADPH consumption at […] nm, Michaelis-Menten fit. To be noted: crude extract of overexpressing yeast; 200 μM NADPH; 50 mM sodium phosphate pH 7; 30 °C. Type of series: biochemical.

Substrate in series [1]: O=CC(=O)O
As to the kind of experiment: cells, lysate or membranes. Type of series: biochemical, Saccharomyces cerevisiae. To be noted: crude extract of overexpressing yeast, 200 μM NADPH, 50 mM sodium phosphate pH 7, 30 °C.

Turning to `O=CC(=O)O` [glyoxylic acid], the Km (usually the concentration of substrate that gives half-maximal velocity) at GLYR1 was 38.8 µM.

B1: Gor1p (Saccharomyces cerevisiae S288C) (protein)
chain: MSKKPIVLKLGKDAFGDQAWGELEKIADVITIPESTTREQFLREVKDPQNKLSQVQVITRTARSVKNTGRFDEELALALPSSVVAVCHTGAGYDQIDVEPFKKRHIQVANVPDLVSNATADTHVFLLLGALRNFGIGNRRLIEGNWPEAGPACGSPFGYDPEGKTVGILGLGRIGRCILERLKPFGFENFIYHNRHQLPSEEEHGCEYVGFEEFLKRSDIVSVNVPLNHNTHHLINAETIEKMKDGVVIVNTARGAVIDEQAMTDALRSGKIRSAGLDVFEYEPKISKELLSMSQVLGLPHMGTHSVETRKKMEELVVENAKNVILTGKVLTIVPELQNEDWPNESKPLV
notes: endogenous gene overexpressed from multicopy plasmid in S. cerevisiae; crude cell extract, no tag told
With B1, the Km in series [1] was 1.9 mM.
